From ChEMBL document CHEMBL4396913, “Synthesis and biological evaluation of hybrid quinolone-based quaternary ammonium antibacterial agents” (Eur J Med Chem, 2019)
≈ marks a conversion by molar mass, not a printed value.

Key:
[1] = Lipophilicity, log k of the compound at 100 ug/ml by micellar electrokinetic chromatography; type: physicochemical
[2] = tested on: Staphylococcus aureus; experiment: Antibacterial activity against Staphylococcus aureus ATCC 6538 cultured in MH medium assessed as reduction in bacterial growth incubated for 48 hrs by microbroth dilution method; type: functional; details: ATCC 6538, 48 h
[3] = tested on: Staphylococcus aureus; experiment: Bactericidal activity against Staphylococcus aureus ATCC 6538 cultured in MH medium assessed as reduction in bacterial survival incubated for 48 hrs by microbroth dilution method; type: functional; details: ATCC 6538, 48 h
[4] = tested on: Staphylococcus aureus; experiment: Antibacterial activity against methicillin resistant Staphylococcus aureus N315 cultured in MH medium assessed as reduction in bacterial growth incubated for 48 hrs by microbroth dilution method; type: functional; details: N315, 48 h
[5] = tested on: Staphylococcus aureus; experiment: Bactericidal activity against methicillin resistant Staphylococcus aureus N315 cultured in MH medium assessed as reduction in bacterial survival incubated for 48 hrs by microbroth dilution method; type: functional; details: N315, 48 h
[6] = tested on: Staphylococcus epidermidis; experiment: Antibacterial activity against Staphylococcus epidermidis ATCC 14990 cultured in MH medium assessed as reduction in bacterial growth incubated for 48 hrs by microbroth dilution method; type: functional; details: ATCC 14990, 48 h
[7] = tested on: Staphylococcus epidermidis; experiment: Bactericidal activity against Staphylococcus epidermidis ATCC 14990 cultured in MH medium assessed as reduction in bacterial survival incubated for 48 hrs by microbroth dilution method; type: functional; details: ATCC 14990, 48 h
[8] = tested on: Enterococcus hirae; experiment: Antibacterial activity against Enterococcus hirae ATCC 1052 cultured in BHI medium assessed as reduction in bacterial growth incubated for 48 hrs by microbroth dilution method; type: functional; details: ATCC 1052, 48 h
[9] = tested on: Bacillus spizizenii; experiment: Antibacterial activity against Bacillus subtilis ATCC 6633 cultured in MH medium assessed as reduction in bacterial growth incubated for 48 hrs by microbroth dilution method; type: functional; details: ATCC 6633, 48 h
[10] = tested on: Bacillus spizizenii; experiment: Bactericidal activity against Bacillus subtilis ATCC 6633 cultured in MH medium assessed as reduction in bacterial survival incubated for 48 hrs by microbroth dilution method; type: functional; details: ATCC 6633, 48 h
[11] = tested on: Escherichia coli; experiment: Antibacterial activity against Escherichia coli ATCC 8739 cultured in MH medium assessed as reduction in bacterial growth incubated for 48 hrs by microbroth dilution method; type: functional; details: ATCC 8739, 48 h
[12] = tested on: Escherichia coli; experiment: Bactericidal activity against Escherichia coli ATCC 8739 cultured in MH medium assessed as reduction in bacterial survival incubated for 48 hrs by microbroth dilution method; type: functional; details: ATCC 8739, 48 h
[13] = tested on: Pseudomonas aeruginosa; experiment: Antibacterial activity against Pseudomonas aeruginosa ATCC 9027 cultured in MH medium assessed as reduction in bacterial growth incubated for 48 hrs by microbroth dilution method; type: functional; details: ATCC 9027, 48 h
[14] = tested on: Pseudomonas aeruginosa; experiment: Bactericidal activity against Pseudomonas aeruginosa ATCC 9027 cultured in MH medium assessed as reduction in bacterial survival incubated for 48 hrs by microbroth dilution method; type: functional; details: ATCC 9027, 48 h
[15] = tested on: Proteus vulgaris; experiment: Antibacterial activity against Proteus vulgaris NCTC 4635 cultured in MH medium assessed as reduction in bacterial growth incubated for 48 hrs by microbroth dilution method; type: functional; details: NCTC 4635, 48 h
[16] = tested on: Proteus vulgaris; experiment: Bactericidal activity against Proteus vulgaris NCTC 4635 cultured in MH medium assessed as reduction in bacterial survival incubated for 48 hrs by microbroth dilution method; type: functional; details: NCTC 4635, 48 h
[17] = tested on: Staphylococcus aureus; experiment: Antibacterial activity against methicillin resistant Staphylococcus aureus 6347 cultured in MH medium assessed as reduction in bacterial growth incubated for 48 hrs by microbroth dilution method; type: functional; details: Staphylococcus aureus, 6347, 48 h
[18] = tested on: Staphylococcus aureus; experiment: Bactericidal activity against methicillin resistant Staphylococcus aureus 6347 cultured in MH medium assessed as reduction in bacterial survival incubated for 48 hrs by microbroth dilution method; type: functional; details: Staphylococcus aureus, 6347, 48 h
[19] = tested on: Staphylococcus epidermidis; experiment: Antibacterial activity against methicillin resistant Staphylococcus epidermidis ATCC 13199 cultured in MH medium assessed as reduction in bacterial growth incubated for 48 hrs by microbroth dilution method; type: functional; details: ATCC 13199, 48 h
[20] = tested on: Staphylococcus epidermidis; experiment: Bactericidal activity against methicillin resistant Staphylococcus epidermidis ATCC 13199 cultured in MH medium assessed as reduction in bacterial survival incubated for 48 hrs by microbroth dilution method; type: functional; details: ATCC 13199, 48 h
[21] = tested on: Streptococcus pneumoniae; experiment: Antibacterial activity against Streptococcus pneumoniae cultured in MH medium assessed as reduction in bacterial growth incubated for 48 hrs by microbroth dilution method; type: functional
[22] = tested on: Serratia marcescens; experiment: Antibacterial activity against Serratia marcescens ATCC 12795 cultured in MH medium assessed as reduction in bacterial growth incubated for 48 hrs by microbroth dilution method; type: functional; details: ATCC 12795, 48 h
[23] = tested on: Serratia marcescens; experiment: Bactericidal activity against Serratia marcescens ATCC 12795 cultured in MH medium assessed as reduction in bacterial survival incubated for 48 hrs by microbroth dilution method; type: functional; details: ATCC 12795, 48 h
[24] = tested on: Escherichia coli; experiment: Antibacterial activity against […] Escherichia coli ATCC 8739 assessed as reduction in bacterial growth incubated for 48 hrs in presence of 50 ug/ml […], PAbetaN by microbroth dilution method; type: functional; details: ATCC 8739, 48 h
[25] = tested on: Escherichia coli; experiment: Bactericidal activity against […] Escherichia coli ATCC 8739 assessed as reduction in bacterial survival incubated for 48 hrs in presence of 50 ug/ml […], PAbetaN by microbroth dilution method; type: functional; details: ATCC 8739, 48 h
[26] = tested on: HEK293; experiment: Cytotoxicity against human HEK293 cells assessed as cell viability upto 20 uM incubated for 72 hrs by MTT assay; type: cell-based; details: hek293, 72 h
[27] = tested on: HEK293; experiment: Cytotoxicity against human HEK293 cells assessed as changes in cell morphology upto 20 uM incubated for 72 hrs by MTT assay; type: cell-based; details: hek293, 72 h
[28] = tested on: Enterococcus hirae; experiment: Bactericidal activity against Enterococcus hirae ATCC 1052 cultured in BHI medium assessed as reduction in bacterial survival incubated for 48 hrs by microbroth dilution method; type: functional; details: ATCC 1052, 48 h
[29] = tested on: Streptococcus pneumoniae; experiment: Bactericidal activity against Streptococcus pneumoniae cultured in MH medium assessed as reduction in bacterial survival incubated for 48 hrs by microbroth dilution method; type: functional

Row | Structure (SMILES) | MIC [2] [µg/mL] | MBC [3] [µg/mL] | MIC [4] [µg/mL] | MBC [5] [µg/mL] | MIC [6] [µg/mL] | MBC [7] [µg/mL] | MIC [8] [µg/mL] | MIC [9] [µg/mL] | MBC [10] [µg/mL] | MIC [11] [µg/mL] | MBC [12] [µg/mL] | MIC [13] [µg/mL] | MBC [14] [µg/mL] | MIC [15] [µg/mL] | MBC [16] [µg/mL] | MIC [17] [µg/mL] | MBC [18] [µg/mL] | MIC [21] [µg/mL] | MIC [22] [µg/mL] | MBC [23] [µg/mL] | further results
1 | CCn1cc(C(=O)O)c(=O)c2cc(F)c(N3CC[N+]4(CN5C(C)=CC(C)=C(C(=O)O)C5=N4)C(C)C3)c(F)c21.[Cl-] (centres undefined) | 64 | 64 | 128 | 128 | 32 | 64 | > 512 | 8 | 8 | 4 | 8 | 128 | > 512 | 1 | 1 | 128 | 128 | > 512 | 64 | 64 | log K [1]: -0.4791; MIC [19]: 16 µg/mL; MBC [20]: 32 µg/mL; MIC [24]: 2 µg/mL; MBC [25]: 4 µg/mL; Activity [26]: Non-Toxic; Activity [27]: Non-Toxic
2 | COc1c(N2C[C@@H]3CCCN[C@@H]3C2)c(F)cc2c(=O)c(C(=O)O)cn(C3CC3)c12 [MOXIFLOXACIN] | 0.125 (≈ 0.311 µM) | 0.125 (≈ 0.311 µM) | 0.125 (≈ 0.311 µM) | 0.25 (≈ 0.623 µM) | 0.063 (≈ 0.157 µM) | 0.125 (≈ 0.311 µM) | 16 (≈ 39.9 µM) | 0.032 (≈ 0.0797 µM) | 0.032 (≈ 0.0797 µM) | 0.125 (≈ 0.311 µM) | 0.25 (≈ 0.623 µM) | 16 (≈ 39.9 µM) | 16 (≈ 39.9 µM) | 0.004 (≈ 0.00996 µM) | 0.008 (≈ 0.0199 µM) | 0.063 (≈ 0.157 µM) | 0.063 (≈ 0.157 µM) | 16 (≈ 39.9 µM) | 0.25 (≈ 0.623 µM) | 0.5 (≈ 1.25 µM) | MBC [28]: 32 µg/mL (≈ 79.7 µM); MBC [29]: 64 µg/mL (≈ 159 µM)
